This passage reports Ki results from patent publication US8354441B2, “Oxazoline derivatives” (Hoffmann-La Roche Inc., priority 2009, dated 2013).

The target of one assay is T1, mouse TAAR1 (Mus musculus, UniProt Q923Y8).
T1 construct: expressed in transfected cells; host or cells: HEK293 (ATCC # CRL-1573), stably transfected with pIRESneo2 expression plasmid
Put plainly: TAAR1 radioligand binding with [3H]-rac-2-(1,2,3,4-tetrahydro-1-naphthyl)-2-imidazoline, membranes of stably transfected HEK293 cells. To be noted: first value of the cell, read-out: Ki (μM) mouse/rat: mouse. On the procedure:
(§1) For the construction of expression plasmids the coding sequences of human, rat and mouse TAAR 1 were amplified from genomic DNA essentially as described by Lindemann et al.. The Expand High Fidelity PCR System (Roche Diagnostics) was used with 1.5 mM Mg^2+ and purified PCR products were cloned into pCR2.1-TOPO cloning vector (Invitrogen) following the instructions of the manufacturer. PCR products were subcloned into the pIRESneo2 vector (BD Clontech, Palo Alto, Calif.), and expression vectors were sequence verified before introduction in cell lines.
(§2) HEK293 cells (ATCC # CRL-1573) were cultured essentially as described by Lindemann et al. (2005). For the generation of stably transfected cell lines HEK293 cells were transfected with the pIRESneo2 expression plasmids containing the TAAR coding sequences (described above) with Lipofectamine 2000 (Invitrogen) according to the instructions of the manufacturer, and 24 hrs post transfection the culture medium was supplemented with 1 mg/ml G418 (Sigma, Buchs, Switzerland). After a culture period of about 10 d clones were isolated, expanded and tested for responsiveness to trace amines (all compounds purchased from Sigma) with the cAMP Biotrak Enzyme immunoassay (EIA) System (Amersham) following the non-acetylation EIA procedure provided by the manufacturer.
(§3) Cells at confluence were rinsed with ice-cold phosphate buffered saline without Ca^2+ and Mg^2+ containing 10 mM EDTA and pelleted by centrifugation at 1000 rpm for 5 min at 4° C. The pellet was then washed twice with ice-cold phosphate buffered saline and the cell pellet was frozen immediately by immersion in liquid nitrogen and stored until use at −80° C. The cell pellet was then suspended in 20 ml HEPES-NaOH (20 mM), pH 7.4 containing 10 mM EDTA, and homogenized with a Polytron (PT 3000, Kinematica) at 10,000 rpm for 10 s. The homogenate was centrifuged at 48,000×g for 30 min at 4° C. and the pellet resuspended in 20 ml HEPES-NaOH (20 mM), pH 7.4 containing 0.1 mM EDTA (buffer A), and homogenized with a Polytron at 10,000 rpm for 10 s. The homogenate was then centrifuged at 48,000×g for 30 min at 4° C. and the pellet resuspended in 20 ml buffer A, and homogenized with a Polytron at 10,000 rpm for 10 s. Protein concentration was determined by the method of Pierce (Rockford, Ill.). The homogenate was then centrifuged at 48,000×g for 10 min at 4° C., resuspended in HEPES-NaOH (20 mM), pH 7.0 including MgCl2 (10 mM) and […] homogenized with a Polytron at 10,000 rpm for 10 s.
(§4) The binding assay was performed at 4° C. in a final volume of 1 ml, and with an incubation time of 30 min. The radioligand [^3H]-rac-2-(1,2,3,4-tetrahydro-1-naphthyl)-2-imidazoline was used at a concentration equal to the calculated Kd value of 60 nM to give a bound at around 0.1% of the total added radioligand concentration, and a specific binding which represented approximately 70-80% of the total binding. Non-specific binding was defined as the amount of [^3H]-rac-2-(1,2,3,4-tetrahydro-1-naphthyl)-2-imidazoline bound in the presence of the appropriate unlabelled ligand (10 μM). Competing ligands were tested in a wide range of concentrations (10 pM-30 μM). […] Each experiment was performed in duplicate. All incubations were terminated by rapid filtration through UniFilter-96 plates (Packard Instrument Company) and glass filter GF/C, pre-soaked for at least 2 h in polyethylenimine 0.3%, and using a Filtermate 96 Cell Harvester (Packard Instrument Company). The tubes and filters were then washed 3 times with 1 ml aliquots of cold buffer B. Filters were not dried and soaked in Ultima gold (45 μl/well, Packard Instrument Company) and bound radioactivity was counted by a TopCount Microplate Scintillation Counter (Packard Instrument Company).

The next assay deals with T2, rat TAAR1 (Rattus norvegicus, UniProt Q923Y9).
T2 construct: expressed in transfected cells; host or cells: HEK293 (ATCC # CRL-1573), stably transfected with pIRESneo2 expression plasmid
T2 sequence (Q923Y9 whole entry): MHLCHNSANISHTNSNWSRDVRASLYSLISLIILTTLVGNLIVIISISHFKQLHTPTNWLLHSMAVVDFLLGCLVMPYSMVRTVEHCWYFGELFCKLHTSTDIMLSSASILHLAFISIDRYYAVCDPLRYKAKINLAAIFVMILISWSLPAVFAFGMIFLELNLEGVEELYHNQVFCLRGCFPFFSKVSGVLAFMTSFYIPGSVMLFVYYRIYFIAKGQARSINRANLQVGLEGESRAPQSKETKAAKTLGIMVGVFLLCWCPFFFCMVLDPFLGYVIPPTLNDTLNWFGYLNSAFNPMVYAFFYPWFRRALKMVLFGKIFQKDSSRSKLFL
The assay is described as above. To be noted: second value of the cell, read-out: Ki (μM) mouse/rat: rat. The procedure: as §1, §2, §3, §4

SMILES strings stand for the structures.

T1 sequence (Q923Y8 whole entry): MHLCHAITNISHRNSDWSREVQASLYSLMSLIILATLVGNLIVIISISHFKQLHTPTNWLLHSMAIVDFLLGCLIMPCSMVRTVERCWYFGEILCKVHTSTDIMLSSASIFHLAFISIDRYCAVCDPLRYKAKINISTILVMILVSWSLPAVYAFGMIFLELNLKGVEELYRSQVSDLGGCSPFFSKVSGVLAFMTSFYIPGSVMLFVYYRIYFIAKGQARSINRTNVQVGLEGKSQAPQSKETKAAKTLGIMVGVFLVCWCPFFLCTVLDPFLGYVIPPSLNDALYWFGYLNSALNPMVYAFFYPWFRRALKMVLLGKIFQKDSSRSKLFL

Regarding `NC1=NC(c2ccc(NC(=O)Nc3ccc(Cl)cc3)cc2)CO1` (racemic) [Example 1, (RS)-1-[4-(2-Amino-4,5-dihydro-oxazol-4-yl)-phenyl]-3-(4-chloro-phenyl)-urea], the Ki turned out to be 0.0026 µM on mouse TAAR1 and 0.0005 µM at rat TAAR1.
`NC1=N[C@@H](CCc2ccc(NC(=O)Nc3ccc(Cl)cc3)cc2)CO1` [Example 3, 1-{4-[2-((S)-2-Amino-4,5-dihydro-oxazol-4-yl)-ethyl]-phenyl}-3-(4-chloro-phenyl)-urea]: the values for the Ki on mouse TAAR1 and on rat TAAR1 were 0.0002 µM and 0.0003 µM, respectively.
Turning to `NC1=N[C@@H](CCCc2ccc(NC(=O)c3ccc(Cl)cc3)cc2)CO1` [Example 8, N-{4-[3-((S)-2-Amino-4,5-dihydro-oxazol-4-yl)-propyl]-phenyl}-4-chloro-benzamide], the Ki came out at 0.0034 µM at mouse TAAR1 and 0.0001 µM at rat TAAR1.
The matching figures for `NC1=N[C@@H](CCc2ccc(NC(=O)c3ccc(Cl)cc3)cc2)CO1` [Example 9, N-{4-[2-((S)-2-Amino-4,5-dihydro-oxazol-4-yl)-ethyl]-phenyl}-4-chloro-benzamide]: 0.0002 µM and 0.0004 µM.
The matching figures for `CC[C@@H](C[C@H]1COC(N)=N1)c1ccc(NC(=O)Nc2ccc(F)cc2)cc1` [Example 12, 1-{4-[(S)-1-((S)-2-Amino-4,5-dihydro-oxazol-4-ylmethyl)-propyl]-phenyl}-3-(4-fluoro-phenyl)-urea]: 0.0012 µM and 0.002 µM.
The matching figures for `CC[C@@H](C[C@H]1COC(N)=N1)c1ccc(NC(=O)Nc2ccc(C(F)(F)F)cc2)cc1` [Example 13, 1-{4-[(S)-1-((S)-2-Amino-4,5-dihydro-oxazol-4-ylmethyl)-propyl]-phenyl}-3-(4-trifluoromethyl-phenyl)-urea]: 0.0007 µM and 0.0023 µM.
With `NC1=N[C@@H](CCc2ccc(NC(=O)Nc3ccc(Cl)c(Cl)c3)cc2)CO1` [Example 14, 1-{4-[2-((S)-2-Amino-4,5-dihydro-oxazol-4-yl)-ethyl]-phenyl}-3-(3,4-dichloro-phenyl)-urea], the Ki at mouse TAAR1 and on rat TAAR1 was 0.0001 µM each time.
Regarding `NC1=N[C@@H](CCc2ccc(NC(=O)Nc3ccc(C(F)(F)F)cc3)cc2)CO1` [Example 15, 1-{4-[2-((S)-2-Amino-4,5-dihydro-oxazol-4-yl)-ethyl]-phenyl}-3-(4-trifluoromethyl-phenyl)-urea], the Ki on mouse TAAR1 and on rat TAAR1 was 0.0001 µM throughout.
For `NC1=N[C@@H](CCc2ccc(NC(=O)c3ccc(F)cc3)cc2)CO1` [Example 16, N-{4-[2-((S)-2-Amino-4,5-dihydro-oxazol-4-yl)-ethyl]-phenyl}-4-fluoro-benzamide], the results for the Ki at mouse TAAR1 and at rat TAAR1 were 0.0008 µM and 0.0003 µM, respectively.
The matching figures for `NC1=N[C@@H](CCc2ccc(NC(=O)c3ccc(C(F)(F)F)cc3)cc2)CO1` [Example 17, N-{4-[2-((S)-2-Amino-4,5-dihydro-oxazol-4-yl)-ethyl]-phenyl}-4-trifluoromethyl-benzamide]: 0.0002 µM and 0.0004 µM.
As for `NC1=N[C@@H](CCc2ccc(NC(=O)c3cccc(Cl)c3)cc2)CO1` [Example 18, N-{4-[2-((S)-2-Amino-4,5-dihydro-oxazol-4-yl)-ethyl]-phenyl}-3-chloro-benzamide], the Ki on mouse TAAR1 and at rat TAAR1 was 0.0002 µM each time.
Consider `NC1=N[C@@H](CCc2ccc(NC(=O)c3ccc(Cl)nc3)cc2)CO1` [Example 31, N-{4-[2-((S)-2-Amino-4,5-dihydro-oxazol-4-yl)-ethyl]-phenyl}-6-chloro-nicotinamide], for which the results for the Ki on mouse TAAR1 and on rat TAAR1 were 0.0025 µM and 0.0035 µM, respectively.
As for `NC1=N[C@@H](CCc2ccc(NC(=O)c3ccc(Cl)cn3)cc2)CO1` [Example 33, 5-Chloro-pyridine-2-carboxylic acid {4-[2-((S)-2-amino-4,5-dihydro-oxazol-4-yl)-ethyl]-phenyl}-amide], the Ki on mouse TAAR1 amounted to 0.0006 µM; at rat TAAR1, 0.001 µM.
The like results for `NC1=N[C@@H](CCc2ccc(NC(=O)c3ncc(Cl)cn3)cc2)CO1` [Example 34, 5-Chloro-pyrimidine-2-carboxylic acid {4-[2-((S)-2-amino-4,5-dihydro-oxazol-4-yl)-ethyl]-phenyl}-amide] were, in that order, 0.0067 µM and 0.0035 µM.
On to `NC1=N[C@@H](CCc2ccc(NC(=O)Nc3ccc(Cl)cn3)cc2)CO1` [Example 35, 1-{4-[2-((S)-2-Amino-4,5-dihydro-oxazol-4-yl)-ethyl]-phenyl}-3-(5-chloro-pyridin-2-yl)-urea], for which the Ki at mouse TAAR1 came out at 0.0001 µM; at rat TAAR1 it was 0.0003 µM.
The matching figures for `NC1=N[C@@H](CCc2ccc(NC(=O)Nc3ccc(Cl)nc3)cc2)CO1` [Example 38, 1-{4-[2-((S)-2-Amino-4,5-dihydro-oxazol-4-yl)-ethyl]-phenyl}-3-(6-chloro-pyridin-3-yl)-urea]: 0.0017 µM and 0.0004 µM.
The like results for `NC1=N[C@@H](CCc2ccc(NC(=O)C3CCC(F)(F)CC3)cc2)CO1` [Example 40, 4,4-Difluoro-cyclohexanecarboxylic acid {4-[2-((S)-2-amino-4,5-dihydro-oxazol-4-yl)-ethyl]-phenyl}-amide] were, in that order, 0.0036 µM and 0.0187 µM.
The like results for `CC1(C(=O)Nc2ccc(CC[C@H]3COC(N)=N3)cc2)CC1` [Example 41, 1-Methyl-cyclopropanecarboxylic acid {4-[2-((S)-2-amino-4,5-dihydro-oxazol-4-yl)-ethyl]-phenyl}-amide] were, in that order, 0.0091 µM and 0.0094 µM.
`NC1=N[C@@H](CCc2ccc(NC(=O)C3CCCC3)cc2)CO1` [Example 43, Cyclopentanecarboxylic acid {4-[2-((S)-2-amino-4,5-dihydro-oxazol-4-yl)-ethyl]-phenyl}-amide]: the Ki at mouse TAAR1 is 0.0029 µM; at rat TAAR1 it was 0.002 µM.
The matching figures for `NC1=N[C@@H](CCc2ccc(NC(=O)C3CC(F)(F)C3)cc2)CO1` [Example 44, 3,3-Difluoro-cyclobutanecarboxylic acid {4-[2-((S)-2-amino-4,5-dihydro-oxazol-4-yl)-ethyl]-phenyl}-amide]: 0.0035 µM and 0.0014 µM.
The like results for `NC1=N[C@@H](CCc2ccc(NC(=O)C3CCC3)cc2)CO1` [Example 45, Cyclobutanecarboxylic acid {4-[2-((S)-2-amino-4,5-dihydro-oxazol-4-yl)-ethyl]-phenyl}-amide] were, in that order, 0.0026 µM and 0.0017 µM.
The like results for `NC1=N[C@@H](CCc2ccc(NC(=O)C3CC3)cc2)CO1` [Example 46, Cyclopropanecarboxylic acid {4-[2-((S)-2-amino-4,5-dihydro-oxazol-4-yl)-ethyl]-phenyl}-amide] were, in that order, 0.0042 µM and 0.0018 µM.
With `NC1=N[C@@H](CCc2ccc(C(=O)Nc3ccc(Cl)cc3)cc2)CO1` [Example 48, 4-[2-((S)-2-Amino-4,5-dihydro-oxazol-4-yl)-ethyl]-N-(4-chloro-phenyl)-benzamide], the Ki came to 0.001 µM on mouse TAAR1 and 0.0003 µM on rat TAAR1.
For `NC1=N[C@@H](CCc2ccc(NC(=O)C3CCCCC3)cc2)CO1` [Example 49, Cyclohexanecarboxylic acid {4-[2-((S)-2-amino-4,5-dihydro-oxazol-4-yl)-ethyl]-phenyl}-amide], the Ki is 0.0024 µM at mouse TAAR1 and 0.0036 µM on rat TAAR1.
